Square brackets hold non-standard residues; d marks the D form. Ends that are not written are not given here. Ac5c = NC1(C(=O)O)CCCC1; Aib = CC(C)(N)C(=O)O

In assay [1] the target is T1, eIF4E (Homo sapiens, UniProt P06730).
T1 construct: Full length human eIF4E was expressed and purified; made in house
In words: Fluorescence-based thermal stability (thermal shift) assay, FTS. The following applies: for eIF4E binding / Tm effect in FTS assay: 10 μM eIF4E, 100 μM peptide. It counts as binding. The text has this: Full length human eIF4E was expressed and purified as described in Brown, C.
A fluorescence based thermal shift assay was used to screen and rank the rationally designed eIF4E binding derivative peptides. The fluorescent dye Sypro Red was used to monitor thermal denaturation of eIF4E. Binding of the dye molecule to eIF4E, as it unfolds due to thermal denaturation, results in a sharp increase in the fluorescence intensity. The midpoint of this transition is termed the Tm. The thermal shift assay was conducted in the iCycler Real Time Detection System (Bio-Rad, Hercules, Calif.). The system contains a heating/cooling device for accurate temperature control and a charge-coupled device (CCD) detector for simultaneous imaging of the fluorescence changes in the wells of the microplate. […] The final protein concentration was 10 μM. Protein samples were incubated with derivative peptides at a concentration of a 100 μM. The plate was heated from 20 to 90° C. with a heating rate of 1° C./min.
where Ft is the fluorescence intensity at temperature T; Tm is the midpoint temperature of the protein-unfolding transition, Fpre and Fpost are the pretransitional and posttransitional fluorescence intensities, respectively, R is the gas constant, ΔHu is the enthalpy of protein unfolding, and ΔCpu is the heat capacity change on protein unfolding. In the absence of ligand, Tm=T0, ΔCpu=ΔC^T0pu, and ΔHu=ΔH^T0u.
To calculate the ligand-binding affinity at Tm for the derivative eIF4E binding peptides, Eq. (2) was used:
To compare binding affinities for the derivative peptides to eIF4E calculated from the thermal shift data, the binding affinity at temperature T (KL(T))) must be calculated. KL(T) can be calculated from KL(Tm) using Eq. (3A): […]
where KL(T) is the ligand association constant at temperature T, and ΔHL(T) is the van't Hoff enthalpy of binding at temperature T. The value of ΔHL(T) was taken to be 5 kcal/mol.

The test system of assay [2] is MCF-7 5′UTR_MYC_Gaussia reporter cell line. In words: Cap-dependent translation cell-based assay (Gaussia luciferase). The following applies: 6 hours.
Experimental: To determine the efficacy of these peptides, a cell-based system to assay changes in cap-dependent translation was designed. […] A reporter line derived from the MCF-7 cell line that stably expresses the 5′UTR_MYC_Gaussia reporter was generated. The robustness of this model system was determined using rapamycin, which inhibits cap-dependent translation by inhibiting mTOR from phosphorylating 4EBPs.
MCF-7 (5′UTR_MYC_Gaussia) cells were cultured in DMEM with 10% FCS. Twenty thousand cells were then seeded per well in 48-wells plates in DMEM serum-free media overnight at 37° C. […] Cells were then cultured in media containing 10% FCS with Rapamycin for 24 hrs and at concentrations of 100 nM, 10 nM, 1 nM, 0.1 nM. Gaussia-Luc activities in cells were measured using Gaussia Luciferase Assay Kit (NEB) with SpectraMax M5 (molecular Devices).
The test system of assay [3] is MCF-7 (5′UTR_MYC_Gaussia) cells. In words: WST-1 assay (cell viability). Conditions: 30 μM, 48 hours after treatment. It counts as cell-based. The method, then:
MCF-7 (5′UTR_MYC_Gaussia) cells were cultured in DMEM with 10% FCS. Twenty thousand cells were then seeded per well in 48-wells plates in DMEM serum-free media overnight at 37° C. Before overnight incubation, cells were incubated at room temperature for 30 mins. […] After 48 hrs of treatment, MCF-7 cells were incubated with Cell Proliferation Reagent WST-1(Roche) for 30 mins at 37° C. Absorbances of cell media were then read at 450 nm with SpectraMax M5.

The test system of assay [4] is endogenous c-myc in MCF-7 cells. Nature of the assay: Western blot of endogenous c-myc. It counts as cell-based. The following applies: 15 μM peptide, 6 hours, vs PBS. The procedure: MCF-7 cells were cultured in DMEM with 10% FCS. Three hundred fifty thousand MCF-7 cells were then seeded per well in 6-wells plates containing DMEM serum-free media overnight at 37° C. […] A mock PBS treatment was also included. Cells were harvested at 6 hrs and lysed in RIPA buffer. Protein concentration was determined using a Lowry Assay kit (Bio-rad). Samples were loaded at 30 ug and blotted against monoclonal antibody c-myc (Sigma Aldrich #M4439). B-actin was blotted for as a loading control.

Assay [5] concerns MCF-7 cells. Nature of the assay: Annexin staining, flow cytometry. It counts as cell-based. Conditions: 30 μM, 48 hours. The procedure: MCF-7 cells were cultured in DMEM with 10% FCS. Two hundred fifty thousand cells were then seeded per well in 6-wells plates containing DMEM serum-free media overnight at 37° C. […] A mock PBS treatment was also included. Cells were harvested, washed in PBS and spun down at 200 g for 5 mins. Cell pellets were resuspended in Annexin-VFLUOS labeling solution from Roche and incubated for 10-15 min at 15-25° C. Cells were then analyzed using LSR II (BD).

In assay [6] the test system is MCF-7 (5′UTR_MYC_Gaussia) cells. Nature of the assay: Propidium iodide staining and FACS analysis. It counts as cell-based. Conditions: 48 hrs. The procedure:
MCF-7 (5′UTR_MYC_Gaussia) cells were cultured in DMEM with 10% FCS. Two hundred fifty thousand cells were then seeded per well in 6-wells plates containing DMEM serum-free media overnight at 37° C. Before overnight incubation, cells were incubated at room temperature for 30 mins. […] A 1% DMSO and a PBS mock treatment was also carried out. Cells were harvested and fixed in 65% ethanol in PBS and incubated at 4° C. for 2 hrs. Cells were spun down and resuspended with Propidium iodide staining solution containing Rnase A. Cells were analyzed using LSR II (BD).

T1 sequence (P06730 whole entry): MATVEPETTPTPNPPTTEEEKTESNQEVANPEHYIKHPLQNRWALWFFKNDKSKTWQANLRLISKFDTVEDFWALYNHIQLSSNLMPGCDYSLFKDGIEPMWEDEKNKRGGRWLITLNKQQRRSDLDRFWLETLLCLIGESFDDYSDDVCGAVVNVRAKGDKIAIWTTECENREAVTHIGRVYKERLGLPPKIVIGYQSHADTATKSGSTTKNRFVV

As for “SEQ ID NO: 29: Tr2_AIB3_A5C with alanine at position 625 (YAREFLL[Ac5c]FQF; not fully specified (C-terminus))”, the “eIF4E binding / Tm effect in FTS assay” value in assay [1] was “no significant increase or decrease in potency”.
Turning to “GT_eIF4G1: eIF4G1 14mer with N-terminal GT linker, no TAT (GTKKRYDREFLLGFQF; not fully specified (C-terminus))”, the “luciferase activity, difference versus control peptide” value in assay [2] (30 μM) is “no significant difference”. For the same molecule, in assay [3], the “WST-1 assay, difference versus control peptide” value is reported as “not significant”.
On to `CC(C)C[C@H](NC(=O)[C@H](Cc1ccccc1)NC(=O)[C@H](CCC(=O)O)NC(=O)[C@H](CCCNC(=N)N)NC(=O)[C@H](CC(=O)O)NC(=O)[C@@H](N)Cc1ccc(O)cc1)C(=O)N[C@@H](CC(C)C)C(=O)NC1(C(=O)N[C@@H](Cc2ccccc2)C(=O)N[C@@H](CCC(N)=O)C(=O)N[C@@H](Cc2ccccc2)C(=O)O)CCCC1` [Tr2_AIB3_A5C, YDREFLL5FQF], for which the “eIF4E binding / Tm effect in FTS assay” value in assay [1] is reported as “significantly increased”.
As for YGRKKRRQRRR [TAT, reference compound], the “eIF4E binding / Tm effect in FTS assay” value in assay [1] was “no binding”. In assay [2] (TAT peptides, up to 100 μM), the “inhibition of cap-dependent translation (luciferase output)” value (“inhibition of cap-dependent translation” for short) was “not inhibited by TAT alone with only a slight decrease at 100 μM”. Moreover, the endogenous c-myc expression entry in assay [4] is on record as “identical”. Moreover, the “annexin staining of cells (apoptosis)” value in assay [5] is “few cells that could be stained”.
Take “SEQ ID NO: 31: Tr2_AIB3_A5C with alanine at position 627 (YDRAFLL[Ac5c]FQF; not fully specified (C-terminus))”: the “eIF4E binding / Tm effect in FTS assay” value in assay [1] is recorded as “no significant increase or decrease in potency”.
“Tr2_AIB4: Tr2 peptide with Q633 replaced by Aib (YDREFLLGF[Aib]F)”: the “eIF4E binding / Tm effect in FTS assay” value in assay [1] is “severely attenuated peptide binding”.
Still for that read-out and setting: for “Tr2_AIB2: Tr2 peptide with E627 replaced by Aib (YDR[Aib]FLLGFQF)” the value was “abolished measurable peptide binding”.
On the same count and under the same terms, then “Tr2_AIB3: Tr2 peptide with G631 replaced by Aib (YDREFLLXFQF; Aib at position 631; Tr2_AIB3)”, with “increased the Tm”.
“TAT_eIF4G1_Cntrl: control peptide equivalent to TAT_eIF4G1 (YGRKKRRQRRRGTKKRADREFAAGFQF; TAT_eIF4G1_Cntrl)”: the “cell cycle populations (sub G1, G1, S, G2), words” value in assay [6] (TAT fused peptides 30 μM, vs PBS mock) is given as “no substantive differences”. In assay [4], the endogenous c-myc expression result was “identical”. Besides, the “annexin staining of cells (apoptosis)” value in assay [5] is reported as “few cells that could be stained”.
In the case of KRYDRE*LL5FQF [AC13], in assay [1] (difference vs AC14), the “drop in thermal shift from AC14 to AC13” value was ~2.1 °C. For the same molecule, in assay [2] (non-TAT peptides, 400 μM), the “inhibition of cap-dependent translation” value was “noticeable drop in activity”.
Turning to “Tr2_AIB1: Tr2 peptide with D625 replaced by aminoisobutyric acid (Aib) (Y[Aib]REFLLGFQF)”, the “eIF4E binding / Tm effect in FTS assay” value in assay [1] is recorded as “severely attenuated peptide binding”.
With “SEQ ID NO: 20: 11mer control peptide with the conserved tyrosine mutated to alanine (ADREFLLGFQF; Control) [reference compound]”, the “eIF4E binding / Tm effect in FTS assay” value in assay [1] is on record as “all eIF4E binding is lost”.
For GTKKRYDRE*LL5FQF [GT_eIF4G1_me5], the “inhibition of cap-dependent translation” value is “some biological activity in a dose responsive manner” in assay [2] (100 μM and 200 μM); “significant decrease in luciferase output” in assay [2] (non-TAT peptides, 400 μM). The “WST-1 assay, difference versus control peptide” value in assay [3] is recorded as “marginally significant”. The “cell cycle populations (sub G1, G1, S, G2), words” value in assay [6] (non TAT peptides 400 μM, vs DMSO control) was “significant increase in the sub G1 population”.
